Assay results: patent publication US8952033B2, “4-anilinofuro[2,3-b]quinoline derivatives, their preparation processes, and pharmaceutical compositions comprising the same” (Kaohsiung Medical University, priority 2011, dated 2015)
Values after ≈ are worked out from the molar mass of the structure shown. Marks after values point to notes of the source that are not given here.

How the values were obtained:
[1] = in vitro anticancer assay, earlier work of the applicants; cited from earlier work
tubulin = settings: Huang Y. T. et al. (2005); cited from earlier work
[2] = test system: NCI-H460 (non-small cell lung carcinoma cell); assay: MTT antiproliferative assay (cell growth %, GI50), NCI-H460; type: cell-based; settings: Homo sapiens, NCI-H460, 48 hours, MTT; for activity at 4000 µg/mL: 4 mg/ml; for activity at 20000 µg/mL: 20 mg/ml
Protocol: (§1) Antiproliferative activities of the compounds of this invention were evaluated substantially according to the method as described in Tseng, C. […] The cells were treated with the test compounds, i.e., the compounds of this invention (in dimethylsulfoxide (DMSO)), or DMSO for 48 hours.
(§2) Before and after the treatment with the test compounds or DMSO, 3-(4,5-dimethylthiazol-2-yl)-2,5-diphenyltetrazolium bromide (MTT, 2 mg/mL, 100 μL) was added to each of the cultures, followed by cultivation for 2 hours. The resultant formazan was dissolved by the addition of DMSO. Absorbance at 570 nm (OD570) was measured using a microtiter plate reader (Dynex MRX-II).
(§3) Determination of GI50 was conducted thrice for each test compound. GI50 is expressed as mean±SD.

[3] = Single-dose pharmacokinetic analysis in CD-1 mice; type: in vivo
Protocol: CD-1 mice were divided into two groups. The first group of mice (n=9) were used to assess the singe-dose pharmacokinetics of the test compounds after intravenous administration, and the second group of mice (n=9) were utilized to assess the singe-dose pharmacokinetics of the test compounds after oral administration. All of the mice were fasted from 4 hours before the administration of the test compounds until 4 hours after the administration of the test compounds.
The assessment for singe-dose pharmacokinetics of the test compounds after intravenous administration was performed as follows. The first group of mice were further randomly divided into three subgroups including compound 13a group (n=3), compound 14a group (n=3), and compound 1 group (n=3). Compounds 13a, 14a, 1 (in polyethylene glycol 400/ethanol/water (30/5/65, v/v/v)) were respectively administered to the mice in compound 13a group, compound 14a group, and compound 1 group at a dose of 2 mg/kg via tail vein injection. Blood samples (0.25 mL) were collected from the mice by virtue of cardiac puncture right before the intravenous administration, and at 2 min, 5 min, 15 min, 30 min, 1 hr, 1.5 hr, 2 hr, 4 hr, 6 hr, 9 hr, 24 hr, and 27 hr after the intravenous administration.
The assessment for singe-dose pharmacokinetics of the test compounds after oral administration was conducted as follows. The second group of mice were further randomly divided into three subgroups including compound 13a group (n=3), compound 14a group (n=3), and compound 1 group (n=3). Compounds 13a, 14a, 1 (in 0.5% methylcellulose) were respectively administered to the mice in compound 13a group, compound 14a group, and compound 1 group at a dose of 20 mg/kg via tube feeding. Blood samples (0.25 mL) were collected from the mice by virtue of cardiac puncture right before the oral administration, and at 15 min, 30 min, 1 hr, 1.5 hr, 2 hr, 4 hr, 6 hr, 9 hr, 24 hr, and 27 hr after the oral administration.
Each of the blood samples was placed in a 0.5 mL Microtainer® tube containing anticoagulant EDTA-K2, followed by mixing evenly. Centrifugation at 7000 g and 4° C. was conducted for 5 minutes. Plasma was collected and was mixed uniformly with a proper amount of acetonitrile, followed by centrifugation. The resultant supernatant was acquired, and was injected into a reversed-phase Biosil ODS column so as to determine the concentration of the respective test compound in plasma (i.e., the plasma concentration of the respective test compound) using a LC-MS/MS system (Waters 2795 LC and Micromass Quattro Ultima). The singe-dose pharmacokinetic parameters of the respective test compound were calculated from the obtained concentration of the respective test compound in plasma (i.e., the obtained plasma concentration of the respective compound) at different time points using WinNonlin Standard Program (version 3.1, Pharsight Corp.)

[4] = Determination of solubility in water; type: physicochemical; settings: water, 25 °C, thermodynamic from solid; 25±0.1° C., stirred overnight, UV-VIS
Protocol: Determination of solubility in water was conducted substantially according to the method as described in Vougogiannopoulou, K. et al. (2008), J. Med. Chem., 51:6421-6431. An excess amount of the respective test compound was added into water, followed by sonication for 5 minutes. The resultant mixture was stirred at ambient temperature (25±0.1° C.) overnight. Centrifugation at 4000 rpm and 25° C. was conducted for 5 minutes. Absorbance of the sample of the respective test compound was measured at 315-420 nm using a UV-VIS spectrophotometer (JASCO UV-Visible V570). For each test compound, a standard curve was generated by plotting concentrations of standard solutions and the corresponding absorbances. The absorbance of the sample of each test compound was then converted to solubility in water (μg/mL) using the corresponding standard curve.

[5] = test system: MCF-7 (breast cancer cell); assay: MTT antiproliferative assay (cell growth %, GI50), MCF-7; type: cell-based; settings: Homo sapiens, MCF7, 48 hours, MTT; for activity at 4000 µg/mL: 4 mg/ml; for activity at 20000 µg/mL: 20 mg/ml
Protocol: as §1, §2, §3

[6] = intravenous administration, 2 mg/kg

| SMILES | Antiproliferative potency compared with amsacrine (m-AMSA) [1] | activity at 4000 µg/mL [2] | activity at 20000 µg/mL [2] | solubility [4] | activity at 4000 µg/mL [5] | activity at 20000 µg/mL [5] | further results |
| --- | --- | --- | --- | --- | --- | --- | --- |
| CC(=O)c1ccc(Nc2c3ccccc3nc3occc23)cc1 [Compound 1, 1-(4-(furo[2,3-b]quinolin-4-ylamino)phenyl)ethanone, reference compound] | higher than that of amsacrine | 33% | 30% | 6 µg/mL (≈ 19.8 µM) | 69% | 61% | Effect on tubulin (tubulin): binding to tubulin and inhibiting tubulin polymerization; AUC(0-inf) [3, 6]: 211 ng·h/mL; CL [3, 6]: 158 mL/min/kg; MRT [3, 6]: 6 min; Time after which compound was unable to be detected in plasma [3, 6]: 1.5 h; Vss [3, 6]: 1.2 L/kg; Vz [3, 6]: 4.1 L/kg; Cmax ([3]; intravenous administration, 2 mg/kg, extrapolated plasma concentration at 0 hr): 3064 ng/mL; t1/2 ([3]; intravenous administration, 2 mg/kg, from 0.5-1.5 hr (compd. 1) or 9-27 hr (13a, 14a)): 0.3^b hr; Bioavailability ([3]; oral 20 mg/kg versus intravenous 2 mg/kg): 2.1%; AUC(0-inf) ([3]; oral administration, 20 mg/kg): 45 ng·h/mL; Cmax ([3]; oral administration, 20 mg/kg): 21 ng/mL; MRT ([3]; oral administration, 20 mg/kg): 162 min; Time after which compound was unable to be detected in plasma ([3]; oral administration, 20 mg/kg): 6 h; Tmax ([3]; oral administration, 20 mg/kg): 18 min; t1/2 ([3]; oral administration, 20 mg/kg, from 2-6 hr (compd. 1), 2-24 hr (13a), 2-9 hr (14a)): 2.0^c hr |
| C/C(=N\O)c1ccc(Nc2c3ccccc3nc3occc23)cc1 [Compound 2, (E)-1-(4-(furo[2,3-b]quinolin-4-ylamino)phenyl)ethanone oxime, reference compound] | comparable to that of amsacrine | 27% | 21% | 10 µg/mL (≈ 31.5 µM) | 64% | 58% |  |
| CO/N=C(\C)c1ccc(Nc2c3ccccc3nc3occc23)cc1 [Compound 3, (E)-1-(4-(furo[2,3-b]quinolin-4-ylamino)phenyl)ethanone O-methyloxime, reference compound] | comparable to that of amsacrine | 51% | 23% | 8 µg/mL (≈ 24.1 µM) | 63% | 37% |  |
